“And” between values parts separate entries of the source, which are not always exact repeats. Identical values can stand only once.
Tests used:
[1] = Single-dose PK in ICR mice (IV/PO)
Experimental: All intravenous and oral dose formulations were analyzed by liquid chromatography coupled with tandem mass spectrometry (LC-MS/MS) to confirm test article concentration and determine formulation stability.
Animals had free access to food, and water was allowed ad libitum. […] The blood samples were collected with sodium heparin as an anticoagulant. The plasma samples were obtained from blood samples by centrifugation and stored at −80°C until analysis.
A total of eighteen mice were divided into intravenous (IV) and oral (PO) administration groups, with nine animals in each group. The mice were fasted overnight with free access to water before dosing. […] After the mice were anesthetized with isoflurane, approximately 100 μL of whole blood was collected through the retro-orbital sinus and transferred to a 1.5 mL tube containing sodium heparin. The gathered blood samples were kept on ice until centrifugation. Plasma samples were harvested by centrifugation at 1,500 g for 10 min at 4°C.
Pharmacokinetic parameters were calculated by a non-compartmental method using Thermo Kinetica® (Version 5.1 SP1, Thermo Electron Corporation, Philadelphia, Pennsylvania, United States). The area under the plasma concentration–time curve from time zero to the time of the last measurable sample (AUC0-t) or the plasma concentration–time curve from time zero to infinity (AUC0-inf) was calculated using the linear trapezoidal method.

CYP3A4/5 = test: Reversible CYP inhibition in HLM, CYP3A4/5 (testosterone, midazolam); assay type: in vitro ADME, human
Experimental: The markers used to determine the activities of CYP isoforms were phenacetin O-deethylation for CYP1A2 (probe substrate: 50 µM phenacetin), bupropion hydroxylation for CYP2B6 (probe substrate: 70 µM bupropion), paclitaxel 6α-hydroxylation for CYP2C8 (probe substrate: 10 µM paclitaxel), diclofenac 4′-hydroxylation for CYP2C9 (probe substrate: 5 µM diclofenac), S-(+)-mephenytoin 4′-hydroxylation for CYP2C19 (probe substrate: 20 µM S-(+)-mephenytoin), dextromethorphan O-demethylation for CYP2D6 (probe substrate: 6 µM dextromethorphan), chlorzoxazone 6′-hydroxylation for CYP2E1 (probe substrate: 70 µM chlorzoxazone), and testosterone 6β-hydroxylation and midazolam 1′-hydroxylation for CYP3A4/5 (probe substrate: 45 µM testosterone and 5 µM midazolam). […] Alpha-naphthoflavone (0.04 µM), 2-phenyl-2-(1-piperidinyl)propane (5 µM), quercetin (1 µM), sulfaphenazole (0.5 µM), ticlopidine (4 µM), quinidine (0.2 µM), diethyldithiocarbamate (20 µM), and ketoconazole (0.05 µM) were used as positive inhibitors of CYP1A2, 2B6, 2C8, 2C9, 2C19, 2D6, 2E1, and 3A4, respectively. The vehicle control was prepared in the same composition as inhibitor solutions but free of inhibitors. The concentrations of probe substrates were close to Km values that were determined in-house and within the range recommended by the FDA ([Huang et al., 2007]). Reaction mixtures were incubated at 37°C for 5, 20, or 30 min, depending on the probe substrates of CYP isoforms. The reactions were terminated by adding cold acetonitrile containing IS, and the terminated incubation mixtures were centrifuged at 3,000 g for 10 min before LC-MS/MS analysis.

[2] = Plasma protein binding (RED), human plasma; assay type: in vitro ADME; conditions: mouse, rat, dog, monkey, human, plasma, pH 7.4; all species, all cases (data not shown); read-out: post-dialysis recovery
Experimental: The plate containing plasma and buffer was equilibrated for 6 h in a 37°C water shaking bath. After incubation, aliquots of buffer and plasma (20 µL) on both sides were collected and precipitated using organic solvents. […] The post-dialysis recovery of amdizalisib was also measured.

OATP1B3 = biological target: T1, OATP1B3 (Homo sapiens, UniProt Q9NPD5); test: OATP1B3 inhibition, β-estradiol 17-(β-D-glucuronide) uptake in transfected HEK293 cells
T1 sequence (Q9NPD5 1-702): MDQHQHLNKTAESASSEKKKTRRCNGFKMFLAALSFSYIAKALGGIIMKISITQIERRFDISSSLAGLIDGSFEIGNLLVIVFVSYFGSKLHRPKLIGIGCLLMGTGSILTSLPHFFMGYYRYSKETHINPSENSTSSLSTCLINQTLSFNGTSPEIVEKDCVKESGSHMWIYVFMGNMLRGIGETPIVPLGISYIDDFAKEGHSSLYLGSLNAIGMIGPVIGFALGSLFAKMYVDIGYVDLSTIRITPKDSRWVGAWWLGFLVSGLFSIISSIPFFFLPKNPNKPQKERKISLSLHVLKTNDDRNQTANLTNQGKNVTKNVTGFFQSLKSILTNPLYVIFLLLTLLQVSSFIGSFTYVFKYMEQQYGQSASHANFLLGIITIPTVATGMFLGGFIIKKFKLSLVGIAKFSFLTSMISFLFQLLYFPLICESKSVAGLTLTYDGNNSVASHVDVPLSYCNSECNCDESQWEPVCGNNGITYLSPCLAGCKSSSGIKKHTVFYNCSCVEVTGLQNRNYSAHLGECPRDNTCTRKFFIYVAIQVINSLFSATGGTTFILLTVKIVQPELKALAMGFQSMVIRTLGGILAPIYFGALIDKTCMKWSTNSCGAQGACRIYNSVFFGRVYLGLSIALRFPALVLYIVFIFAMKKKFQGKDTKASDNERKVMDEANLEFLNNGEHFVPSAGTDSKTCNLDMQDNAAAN
Experimental: The pre-incubation solutions were removed, and incubation solutions containing the inhibitors and probe substrates (or transport buffer containing an equal volume of vehicle control and probe substrates) were added and incubated at 37°C for 2 min (5 min for OATP1B3). The probe substrate for OAT1 was 4-aminohippuric acid (10 μM), for OAT3 was estrone 3-sulfate (10 μM), for OCT2 was metformin (100 μM), for OATP1B1 was β-estradiol 17-(β-D-glucuronide) (5 μM), for OATP1B3 was β-estradiol 17-(β-D-glucuronide) (10 μM), and for MATE1 and MATE2-K was tetraethylammonium (10 μM). After incubation, cells were washed three times with ice-cold transport buffer (25 mM HEPES, pH 7.4, pH 8.0 for overexpressing MATE1 and MATE2-K HEK293 cells) and lysed in distilled water. The concentrations of probe substrates were determined by LC-MS/MS, and a BCA Kit (Solarbio ®Life Sciences, Beijing, China) was used to determine the protein content in the cell lysate.
where C is the concentration of the drug in the cell lysate (nM), P is the protein concentration of the cell lysate (mg/mL), and T is the incubation time (minute). Uptake ratetest compound is the uptake rate of the substrate in the presence of the test compound. Uptake ratevehicle control is the uptake rate of the substrate in the presence of the vehicle control. Uptake ratepassive is the uptake rate of the substrate in the presence of the positive inhibitor at the top test concentration.

[3] = male, ICR, mouse, in vivo, iv, 2.5 mg/kg
[4] = male, ICR, mouse, in vivo, po, 10 mg/kg

## C[C@H](Nc1ncnc(N)c1C#N)c1cc2ncc(Cl)n2nc1-c1ccccc1 [Amdizalisib]
[1]; ICR mouse, fasted, PO 10 mg/kg
  FPO: 101%
[1]; [3]
  AUC(0-inf): 2830 ng·h/mL
  AUC(0-t): 2700 ng·h/mL
  MRT: 2.12 h
  Vd: 1.87 L/kg
  clearance: 14.7 mL/min/kg
  half-life: 2.06 h
[1]; [4]
  AUC(0-inf): 13700 ng·h/mL
  AUC(0-t): 10900 ng·h/mL
  Cmax: 3080 ng/mL
  MRT: 4.91 h
  half-life: 4.16 h
CYP3A4/5; CYP3A4_Midazolam, 0.08 μM
  enzyme activity remaining: 93.8% and 105%
CYP3A4/5; CYP3A4_Midazolam, 0.4 μM
  enzyme activity remaining: 106% and 103%
CYP3A4/5; CYP3A4_Midazolam, 2 μM
  enzyme activity remaining: 103% and 100%
CYP3A4/5; CYP3A4_Midazolam, 10 μM
  enzyme activity remaining: 99.4% and 101%
CYP3A4/5; CYP3A4_Midazolam, 50 μM
  enzyme activity remaining: 89.1% and 86.3%
CYP3A4/5; CYP3A4_Testosterone, 0.08 μM
  enzyme activity remaining: 101% and 99.4%
CYP3A4/5; CYP3A4_Testosterone, 0.4 μM
  enzyme activity remaining: 86.1% and 90.5%
CYP3A4/5; CYP3A4_Testosterone, 2 μM
  enzyme activity remaining: 89.9% and 94.3%
CYP3A4/5; CYP3A4_Testosterone, 10 μM
  enzyme activity remaining: 83.5% and 84.8%
CYP3A4/5; CYP3A4_Testosterone, 50 μM
  enzyme activity remaining: 86.7% and 69.0%
CYP3A4/5; human, human liver microsomes, reversible, without pre-incubation
  IC50: > 50 µM
[2]
  recovery at 6 h: > 90%
OATP1B3
  IC50: 5.03 µM
OATP1B3; human, 5 min, 0.3 μM, pH 7.4
  Percentage transported: 94.5%
  Uptake rate: 62.4±5.58 pmol/mg protein/min
OATP1B3; human, 5 min, 1 μM, pH 7.4
  Percentage transported: 89.2%
  Uptake rate: 59.1±6.36 pmol/mg protein/min
OATP1B3; human, 5 min, 3 μM, pH 7.4
  Percentage transported: 68.1%
  Uptake rate: 46.2±10.1 pmol/mg protein/min
OATP1B3; human, 5 min, 10 μM, pH 7.4
  Percentage transported: 29.3%
  Uptake rate: 22.4±1.00 pmol/mg protein/min
OATP1B3; human, 5 min, 30 μM, pH 7.4
  Percentage transported: 3.82%
  Uptake rate: 6.76±0.372 pmol/mg protein/min
OATP1B3; human, 5 min, 100 μM, pH 7.4
  Percentage transported: -4.02%
  Uptake rate: 1.99±0.315 pmol/mg protein/min
OATP1B3; human, 5 min, pH 7.4
  calculated R value (OATP1B3): 5.1
OATP1B3; human, pH 7.4
  inhibition at 5 min, 0.3 µM: 5.47%
  inhibition at 5 min, 1 µM: 10.8%
  inhibition at 5 min, 3 µM: 31.9%
  inhibition at 5 min, 10 µM: 70.7%
  inhibition at 5 min, 30 µM: 96.2%
  inhibition at 5 min, 100 µM: 104%

— publication PMC11211886 (Frontiers in Pharmacology, 2024)
